From patent publication US11046699B2, “Pyrazolo-pyrimidin-amino-cycloalkyl compounds and their therapeutic uses” (RAPT THERAPEUTICS, INC., priority 2018, dated 2021)
Structures can show the parent of a compound that is named as a salt. Where two headings read alike, the source gives them in different places.

Molecular target: GCN2 (Homo sapiens, UniProt Q9P2K8)
Test: GCN2 enzymatic endpoint assay: phosphorylation of GFP-eIF2α measured by TR-FRET (Lanthascreen)
Assay type: biochemical
Summary of the method: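 Phosphorylated eIF2α read by Lanthascreen TR-FRET (acceptor 520 nm over donor 495 nm) after EDTA stop. The reaction ran 90 min at room temperature on 80 nM GFP-eIF2α with 2 μM ATP.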

[1] = tested as described in Example 77, compound and/or hydrochloride, dihydrochloride or trifluoroacetic acid salt, read-out: IC 50 Activity
[2] = GCN2 biochemical IC50, 4 nM GCN2, 2 μM ATP, 80 nM GFP-eIF2α, 90 min RT, read-out: GCN2 activity

GCN2, sequence (Q9P2K8 whole entry): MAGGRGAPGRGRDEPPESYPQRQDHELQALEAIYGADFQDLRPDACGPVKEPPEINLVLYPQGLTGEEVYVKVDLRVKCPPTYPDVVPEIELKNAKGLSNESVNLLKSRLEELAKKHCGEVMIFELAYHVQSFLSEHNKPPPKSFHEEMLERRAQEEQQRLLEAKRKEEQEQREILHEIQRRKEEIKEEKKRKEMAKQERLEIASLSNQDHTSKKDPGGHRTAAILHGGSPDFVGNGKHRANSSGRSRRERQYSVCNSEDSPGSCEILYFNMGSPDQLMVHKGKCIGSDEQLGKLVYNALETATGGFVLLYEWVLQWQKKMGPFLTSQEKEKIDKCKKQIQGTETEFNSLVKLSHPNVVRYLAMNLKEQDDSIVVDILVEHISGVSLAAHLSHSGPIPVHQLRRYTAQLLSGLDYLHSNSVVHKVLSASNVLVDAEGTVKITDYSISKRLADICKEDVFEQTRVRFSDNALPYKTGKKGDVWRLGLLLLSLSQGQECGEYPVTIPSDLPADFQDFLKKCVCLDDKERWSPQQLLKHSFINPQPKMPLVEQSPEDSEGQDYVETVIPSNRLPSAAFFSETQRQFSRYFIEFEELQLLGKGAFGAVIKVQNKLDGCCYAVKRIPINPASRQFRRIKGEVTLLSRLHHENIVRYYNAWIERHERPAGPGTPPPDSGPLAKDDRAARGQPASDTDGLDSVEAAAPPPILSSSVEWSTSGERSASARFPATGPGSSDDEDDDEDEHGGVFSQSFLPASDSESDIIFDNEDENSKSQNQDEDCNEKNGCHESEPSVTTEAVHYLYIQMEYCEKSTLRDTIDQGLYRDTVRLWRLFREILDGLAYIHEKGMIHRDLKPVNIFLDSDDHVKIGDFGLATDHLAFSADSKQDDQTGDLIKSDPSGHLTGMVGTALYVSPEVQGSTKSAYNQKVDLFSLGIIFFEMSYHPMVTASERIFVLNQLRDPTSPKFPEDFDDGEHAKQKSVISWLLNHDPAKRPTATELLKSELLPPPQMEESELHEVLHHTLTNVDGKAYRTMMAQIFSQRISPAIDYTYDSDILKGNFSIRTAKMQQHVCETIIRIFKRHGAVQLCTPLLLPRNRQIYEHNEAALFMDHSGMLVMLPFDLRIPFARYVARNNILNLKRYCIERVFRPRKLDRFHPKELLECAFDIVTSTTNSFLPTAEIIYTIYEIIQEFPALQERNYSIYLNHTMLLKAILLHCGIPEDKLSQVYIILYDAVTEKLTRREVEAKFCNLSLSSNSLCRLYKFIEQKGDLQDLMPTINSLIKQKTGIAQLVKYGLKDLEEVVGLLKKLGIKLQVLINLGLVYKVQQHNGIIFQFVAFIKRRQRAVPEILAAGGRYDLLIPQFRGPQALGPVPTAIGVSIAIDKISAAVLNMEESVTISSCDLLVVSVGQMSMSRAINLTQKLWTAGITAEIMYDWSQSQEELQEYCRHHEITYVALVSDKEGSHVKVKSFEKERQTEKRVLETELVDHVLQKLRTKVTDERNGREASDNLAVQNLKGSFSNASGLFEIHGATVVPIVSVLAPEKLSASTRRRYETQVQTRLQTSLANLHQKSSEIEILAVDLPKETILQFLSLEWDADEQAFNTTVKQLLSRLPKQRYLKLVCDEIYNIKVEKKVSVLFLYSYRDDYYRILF

| SMILES | IC50 [1] [nM] | IC50 [2] [nM] |
| --- | --- | --- |
| C[C@@H]1CN(C(=O)[C@@H]2CC[C@@H](Nc3ncc4c(Br)nn(-c5ccc6ncccc6c5)c4n3)C2)C[C@H](C)N1 [((1R,3R)-3-((3-bromo-1-(quinolin-6-yl)-1H-pyrazolo[3,4-d]pyrimidin-6-yl)amino)cyclo-pentyl)((3S,5R)-3,5-dimethylpiperazin-1-yl) methanone] | 25 to 200 | – |
| CNC(=O)[C@]1(CC#N)CC[C@@H](Nc2ncc3c(Br)nn(-c4cc(F)c5ncccc5c4)c3n2)C1 (single isomer, unassigned) [Example 19] | – | 25 to 200 |
| CNC(=O)[C@]1(C)CC[C@@H](Nc2ncc3c(Br)nn(-c4cc(C#N)cc(CO)c4)c3n2)C1 [(1R,3R)-3-[[3-bromo-1-[3-cyano-5-(hydroxymethyl)phenyl]pyrazolo[3,4-d]pyrimidin-6-yl]amino]-N,1-dimethyl-cyclopentanecarboxamide] | 25 to 200 | – |
| CNC(=O)[C@]1(C)CC[C@@H](Nc2ncc3c(Br)nn(-c4ccc5c(c4)CN(S(C)(=O)=O)CC5)c3n2)C1 [(1R,3R)-3-[[3-bromo-1-(2-methylsulfonyl-3,4-dihydro-1H-isoquinolin-7-yl)pyrazolo [3,4-d]pyrimidin-6-yl]amino]-N,1-dimethyl-cyclopentanecarboxamide] | 25 to 200 | – |
| NC(=O)C1(NC(=O)[C@@H]2CC[C@@H](Nc3ncc4c(Br)nn(-c5cc(F)c6ncccc6c5)c4n3)C2)CCC1 [(1R,3R)-3-[[3-bromo-1-(8-fluoro-6-quinolyl)pyrazolo[3,4-d]pyrimidin-6-yl]amino]-N-(1-carbamoylcyclobutyl)cyclopentane-carboxamide] | 25 to 200 | – |
| CNC(=O)[C@@H]1CC[C@@H](Nc2ncc3c(Br)nn(-c4cc(F)c5nc(C)ccc5c4)c3n2)C1 [(1R,3R)-3-((3-bromo-1-(8-fluoro-2-methyl-quinolin-6-yl)-1H-pyrazolo[3,4-d]pyrimidin-6-yl)amino)-N-methylcyclopentane-1-carboxamide] | 25 to 200 | – |
| COCCNC(=O)[C@]1(C(C)C)CC[C@@H](Nc2ncc3c(Br)nn(-c4ccc(-c5nnc(C)s5)c(CCC#N)c4)c3n2)C1 [(1R,3R)-3-[[3-bromo-1-[3-(2-cyanoethyl)-4-(5-methyl-1,3,4-thiadiazol-2-yl)phenyl]pyrazolo[3,4-d]pyrimidin-6-yl]amino]-1-isopropyl-N-(2-methoxyethyl)cyclopentane-carboxamide] | 25 to 200 | – |
| COCCC(=O)N[C@H]1C[C@H](Nc2ncc3c(Br)nn(-c4ccc5ncccc5c4)c3n2)C1 [Example 3, N-((1r,3r)-3-((3-bromo-1-(quinolin-6-yl)-1H-pyrazolo[3,4-d]pyrimidin-6-yl)amino)cyclobutyl)-3-methoxypropanamide] | – | 500 to 1000 |
| Cc1nnc(-c2ccc(-n3nc(Br)c4cnc(N[C@@H]5CC[C@@](C)(C(N)=O)C5)nc43)cc2)s1 [Example 60, (1R,3R)-3-((3-bromo-1-(4-(5-methyl-1,3,4-thiadiazol-2-yl)phenyl)-1H-pyrazolo[3,4-d]pyrimidin-6-yl)amino)-1-methylcyclopentane-1-carboxamide] | – | 25 to 200 |
| CNC(=O)N1CC[C@@H](Nc2ncc3c(Br)nn(-c4ccc(-c5nnc(C)s5)cc4)c3n2)C1 [(3R)-3-[[3-bromo-1-[4-(5-methyl-1,3,4-thiadiazol-2-yl)phenyl]pyrazolo [3,4-d]pyrimidin-6-yl]amino]-N-methyl-pyrrolidine-1-carboxamide] | 25 to 200 | – |
| CNC(=O)[C@]1(C)CC[C@@H](Nc2ncc3c(Br)nn(-c4cc(Cl)cc(CC#N)c4)c3n2)C1 [(1R,3R)-3-[[3-bromo-1-[3-chloro-5-(cyanomethyl)phenyl]pyrazolo[3,4-d]pyrimidin-6-yl]amino]-N,1-dimethyl-cyclopentanecarboxamide] | 25 to 200 | – |
| Cc1nnc(-c2ccc(-n3nc(Br)c4cnc(N[C@@H]5CC[C@]6(CCNC6=O)C5)nc43)cc2CCC#N)s1 | 25 to 200 | – |
| Cc1nnc(-c2ccc(-n3nc(Br)c4cnc(N[C@@H]5CC[C@@](C)(O)C5)nc43)cc2CCC#N)s1 [Example 76, 3-(5-(3-bromo-6-(((1R,3R)-3-hydroxy-3-methylcyclopentyl)amino)-1H-pyrazolo[3,4-d]pyrimidin-1-yl)-2-(5-methyl-1,3,4-thiadiazol-2-yl)phenyl)propanenitrile] | – | 25 to 200 |
| O=C([C@@H]1CC[C@@H](Nc2ncc3c(Br)nn(-c4ccc5ncccc5c4)c3n2)C1)N1CC2(CCNC2)C1 [((1R,3R)-3-((3-bromo-1-(quinolin-6-yl)-1H-pyrazolo[3,4-d]pyrimidin-6-yl)amino)cyclo-pentyl)(2,6-diazaspiro[3.4]octan-2-yl) methanone] | 25 to 200 | – |
| CNC(=O)[C@@H]1CC[C@@H](Nc2ncc3c(I)nn(-c4ccc(-c5nnc(C)o5)cc4)c3n2)C1 [(1R,3R)-3-[[3-iodo-1-[4-(5-methyl-1,3,4-oxadiazol-2-yl)phenyl]pyrazolo[3,4-d]pyrimidin-6-yl]amino]-N-methyl-cyclopentanecarboxamide] | 25 to 200 | – |
| CNC(=O)[C@]1(C)CC[C@@H](Nc2ncc3c(Br)nn(-c4cc(CN)cc(C(F)(F)F)c4)c3n2)C1 [(1R,3R)-3-[[1-[3-(aminomethyl)-5-(trifluoromethyl)phenyl]-3-bromo-pyrazolo[3,4-d]pyrimidin-6-yl]amino]-N,1-dimethyl-cyclopentanecarboxamide; 2,2,2-trifluoroacetic acid] | 25 to 200 | – |

| SMILES | IC50 [1] [nM] | IC50 [2] [nM] |
| --- | --- | --- |
| CC1(C(=O)N2CCOCC2)CC[C@@H](Nc2ncc3c(Br)nn(-c4cc(F)c5ncccc5c4)c3n2)C1 (stereo partly drawn) [[(3R)-3-[[3-bromo-1-(8-fluoro-6-quinolyl)pyrazolo[3,4-d]pyrimidin-6-yl]amino]-1-methyl-cyclopentyl]-morpholino-methanone] | < 25 | – |
| CNC(=O)[C@]1(C)CC[C@@H](Nc2ncc3c(Br)nn(-c4cc(CO)c5ncccc5c4)c3n2)C1 [(1R,3R)-3-[[3-bromo-1-[8-(hydroxy-methyl)-6-quinolyl]pyrazolo[3,4-d]pyrimidin-6-yl]amino]-N,1-dimethyl-cyclopentanecarboxamide] | < 25 | – |
| CNC(=O)[C@]1(C)CC[C@@H](Nc2ncc3c(Br)nn(-c4cc(Cl)cc(CN=S(C)(=O)O)c4)c3n2)C1 | 25 to 200 | – |
| O=C([C@@H]1CC[C@@H](Nc2ncc3c(Br)nn(-c4cc(F)c5ncccc5c4)c3n2)C1)N1CCN2CCOC[C@@H]2C1 [((1R,3R)-3-((3-bromo-1-(8-fluoroquinolin-6-yl)-1H-pyrazolo[3,4-d]pyrimidin-6-yl)amino)cyclopentyl)((S)-hexahydropyrazino[2,1-c] [1,4]oxazin-8(1H)-yl)methanone] | 25 to 200 | – |
| COCCO[C@@H]1CCN(C(=O)[C@@H]2CC[C@@H](Nc3ncc4c(Br)nn(-c5ccc6ncccc6c5)c4n3)C2)C1 [((1R,3R)-3-((3-bromo-1-(quinolin-6-yl)-1H-pyrazolo[3,4-d]pyrimidin-6-yl)amino)cyclopentyl)((R)-3-(2-methoxyethoxy)pyrrolidin-1-yl)methanone] | 25 to 200 | – |
| CNC(=O)[C@]1(C)CC[C@@H](Nc2ncc3c(Br)nn(-c4cccc(NC(=O)c5cnccn5)c4)c3n2)C1 [Example 54, N-(3-(3-bromo-6-(((1R,3R)-3-methyl-3-(methylcarbamoyl)cyclopentyl)amino)-1H-pyrazolo[3,4-d]pyrimidin-1-yl)phenyl)pyrazine-2-carboxamide] | – | 25 to 200 |
| CNC(=O)[C@]1(C)CC[C@@H](Nc2ncc3c(Br)nn(-c4ccc5c(c4)C(N)CO5)c3n2)C1 (stereo partly shown) | 25 to 200 | – |
| CNC(=O)[C@]1(C)CC[C@@H](Nc2ncc3c(Br)nn(-c4ccc(-n5cccn5)cc4)c3n2)C1 [(1R,3R)-3-[[3-bromo-1-(4-pyrazol-1-ylphenyl)pyrazolo[3,4-d]pyrimidin-6-yl]amino]-N,1-dimethyl-cyclopentane-carboxamide] | 25 to 200 | – |
| CNC(=O)[C@]1(C)CC[C@@H](Nc2ncc3c(Br)nn(-c4cc(CO)cc([N+](=O)[O-])c4)c3n2)C1 [(1R,3R)-3-[[3-bromo-1-[3-(hydroxy-methyl)-5-nitro-phenyl]pyrazolo [3,4-d]pyrimidin-6-yl]amino]-N,1-dimethyl-cyclopentanecarboxamide] | 25 to 200 | – |
| CNC(=O)[C@]1(C)CC[C@@H](Nc2ncc3c(Br)nn(-c4cc(CCN)c5ncccc5c4)c3n2)C1 [Example 32, (1R,3R)-3-((1-(8-(2-aminoethyl)quinolin-6-yl)-3-bromo-1H-pyrazolo[3,4-d]pyrimidin-6-yl)amino)-N,1-dimethylcyclopentane-1-carboxamide; 2,2,2-trifluoroacetic acid] | – | < 25 |
| CNC(=O)[C@@]1(C)CC[C@@H](Nc2ncc3c(Br)nn(-c4ccc5ncccc5c4)c3n2)C1 [(1S,3R)-3-((3-bromo-1-(quinolin-6-yl)-1H-pyrazolo[3,4-d]pyrimidin-6-yl)amino)-N,1-dimethylcyclopentane-1-carboxamide] | 200 to 500 | – |
| COCCNC(=O)C12CCC(Nc3ncc4c(Br)nn(-c5ccc6ncccc6c5)c4n3)(CC1)C2 [4-((3-bromo-1-(quinolin-6-yl)-1H-pyrazolo [3,4-d]pyrimidin-6-yl)amino)-N-(2-methoxyethyl)bicyclo[2.2.1]heptane-1-carboxamide] | 200 to 500 | – |
| CNC(=O)[C@]1(C)CC[C@@H](Nc2ncc3c(Br)nn(-c4cc(F)c5nc(C)cc(O)c5c4)c3n2)C1 [(1R,3R)-3-[[3-bromo-1-(8-fluoro-4-hydroxy-2-methyl-6-quinolyl)pyrazolo[3,4-d]pyrimidin-6-yl]amino]-N,1-dimethyl-cyclopentanecarboxamide] | 25 to 200 | – |
| CNC(=O)[C@]1(C)CC[C@@H](Nc2ncc3c(Br)nn(-c4cc(Cl)cc(CCN)c4)c3n2)C1 [Example 41, (1R,3R)-3-((1-(3-(2-aminoethyl)-5-chlorophenyl)-3-bromo-1H-pyrazolo[3,4-d]pyrimidin-6-yl)amino)-N,1-dimethylcyclopentane-1-carboxamide hydrochloride] | – | < 25 |
| CNC(=O)C1(CCC#N)CC[C@@H](Nc2ncc3c(Br)nn(-c4ccc(-c5nnc(C)s5)cc4)c3n2)C1 (stereo partly drawn) [(3R)-3-[[3-bromo-1-[4-(5-methyl-1,3,4-thiadiazol-2-yl)phenyl]pyrazolo[3,4-d]pyrimidin-6-yl]amino]-1-(2-cyanoethyl)-N-methyl-cyclopentanecarboxamide] | 25 to 200 | – |
